Assay results reported in ChEMBL document CHEMBL1150959 (J Nat Prod, 1998).
Activity calls are given as the source filed them. The rule behind the calls is not given here.

Experiments:
[1] = biological target: Prostaglandin G/H synthase 1 (Bos taurus) (UniProt O62698); experiment: Inhibition of COX1-catalyzed prostaglandin biosynthesis at 200 ug/ml without preincubation; details: TDE = time-dependent effect
[2] = biological target: Prostaglandin G/H synthase 1 (Bos taurus) (UniProt O62698); experiment: Inhibition of COX1-catalyzed prostaglandin biosynthesis at 100 ug/ml without preincubation
[3] = Ratio of IC50 for COX2 to IC50 for COX1
[4] = biological target: Prostaglandin G/H synthase 1 (Bos taurus) (UniProt O62698); experiment: Inhibition of COX1-catalyzed prostaglandin biosynthesis 10 mins of preincubation

Sequence of Prostaglandin G/H synthase 1 (Bos taurus) (O62698 whole entry, looked up): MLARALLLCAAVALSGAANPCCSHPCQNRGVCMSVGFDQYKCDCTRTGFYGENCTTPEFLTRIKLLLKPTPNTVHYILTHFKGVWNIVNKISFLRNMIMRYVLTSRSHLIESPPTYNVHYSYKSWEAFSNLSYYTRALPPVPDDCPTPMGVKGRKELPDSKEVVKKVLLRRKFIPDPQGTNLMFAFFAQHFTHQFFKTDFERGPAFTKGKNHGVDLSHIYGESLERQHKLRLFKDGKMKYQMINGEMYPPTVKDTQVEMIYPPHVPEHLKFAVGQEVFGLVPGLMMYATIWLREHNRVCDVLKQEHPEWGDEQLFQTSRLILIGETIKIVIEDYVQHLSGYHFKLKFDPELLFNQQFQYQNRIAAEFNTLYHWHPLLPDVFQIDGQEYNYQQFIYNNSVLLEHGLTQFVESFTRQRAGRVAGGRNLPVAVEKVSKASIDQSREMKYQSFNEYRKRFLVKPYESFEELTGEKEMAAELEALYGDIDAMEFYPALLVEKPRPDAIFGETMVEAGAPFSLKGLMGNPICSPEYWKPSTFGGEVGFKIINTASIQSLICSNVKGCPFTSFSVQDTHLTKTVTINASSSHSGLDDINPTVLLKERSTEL

Q: For `C[C@H]1[C@H](C)CC[C@]2(C(=O)O)CC[C@]3(C)C(=CC[C@@H]4[C@@]5(C)CC[C@H](O)C(C)(C)[C@@H]5CC[C@]43C)[C@H]12` [URSOLIC ACID], which Activity [1] is on record?
A: tde

Q: And the Activity [2]?
A: Active

Q: What about the Ratio IC50 [3] of the same compound?
A: 0.6

Q: What about the IC50 [4] of the same compound?
A: 210 µM
